According to ChEMBL document CHEMBL1136174, “Synthesis and antimycobacterial activity of capuramycin analogues. Part 1: substitution of the azepan-2-one moiety of capuramycin” (Bioorg Med Chem Lett, 2003):
pIC50: −log10 of the molar value. Converted amounts (≈) assume the structure as drawn.

How the values were obtained:
Mycobacterium kansasii = assay: Antimycobacterial activity against Mycobacterium kansasii (ATCC12478); format: functional
Mycobacterium avium = assay: Antimycobacterial activity against Mycobacterium avium (NIHJ1605); format: functional
[1] = system: Mycobacterium intracellulare; assay: Antimycobacterial activity against Mycobacterium intracellular (ATCC 1954 E-3); format: functional
[2] = system: Mycolicibacterium smegmatis; assay: Antimycobacterial activity against Mycobacterium smegmatis (SANK 75075); format: functional
[3] = target: T1, Phospho-N-acetylmuramoyl-pentapeptide-transferase (Escherichia coli K-12, UniProt P0A6W3); assay: Inhibitory activity against translocase I
T1 sequence (P0A6W3 whole entry): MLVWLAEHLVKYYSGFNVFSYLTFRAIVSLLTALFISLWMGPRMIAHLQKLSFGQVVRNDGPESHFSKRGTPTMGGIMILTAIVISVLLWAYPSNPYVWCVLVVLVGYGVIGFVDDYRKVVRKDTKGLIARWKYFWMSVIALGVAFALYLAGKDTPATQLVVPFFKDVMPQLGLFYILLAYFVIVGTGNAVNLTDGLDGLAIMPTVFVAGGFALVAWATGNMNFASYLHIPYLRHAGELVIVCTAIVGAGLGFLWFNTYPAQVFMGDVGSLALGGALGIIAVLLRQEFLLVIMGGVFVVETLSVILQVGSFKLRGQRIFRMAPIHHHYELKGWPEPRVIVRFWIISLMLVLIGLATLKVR

Row | Compound | MIC (Mycobacterium kansasii) [µg/mL] | MIC (Mycobacterium avium) [µg/mL] | MIC [1] [µg/mL] | MIC [2] [µg/mL] | pIC50 [3]
1 | CO[C@H]1[C@@H](O)[C@H](n2ccc(=O)[nH]c2=O)O[C@@H]1[C@@H](O[C@H]1OC(C(=O)N[C@H]2CCC[C@@H](C)NC2=O)=C[C@H](O)[C@@H]1O)C(N)=O | 16 (≈ 27.4 µM) | 8 (≈ 13.7 µM) | 4 (≈ 6.85 µM) | 6.25 (≈ 10.7 µM) | 
2 | CO[C@H]1/C=C/O[C@@]2(C)Oc3c(C)c(O)c4c(O)c(c(/C=N/N5CCN(C)CC5)c(O)c4c3C2=O)NC(=O)/C(C)=C\C=C\[C@H](C)[C@H](O)[C@@H](C)[C@@H](O)[C@@H](C)[C@H](OC(C)=O)[C@@H]1C [RIFAMPIN] | 0.25 (≈ 0.304 µM) | 0.125 (≈ 0.152 µM) | 0.125 (≈ 0.152 µM) |  | 
3 | CO[C@H]1[C@@H](O)[C@H](n2ccc(=O)[nH]c2=O)O[C@@H]1[C@@H](O[C@H]1OC(C(=O)NCc2ccccc2C)=C[C@H](O)[C@@H]1O)C(N)=O |  |  |  | 12.5 (≈ 22.2 µM) | 6.05
4 | CO[C@H]1[C@@H](O)[C@H](n2ccc(=O)[nH]c2=O)O[C@@H]1[C@@H](O[C@H]1OC(C(=O)NCCc2cccc(Cl)c2)=C[C@H](O)[C@@H]1O)C(N)=O |  |  |  | 12.5 (≈ 20.9 µM) | 7.47
5 | CO[C@H]1[C@@H](O)[C@H](n2ccc(=O)[nH]c2=O)O[C@@H]1[C@@H](O[C@H]1OC(C(=O)Nc2nccs2)=C[C@H](O)[C@@H]1O)C(N)=O |  |  |  | 25 (≈ 46.2 µM) | 7.48
6 | COc1ccc(CNC(=O)C2=C[C@H](O)[C@H](O)[C@@H](O[C@@H](C(N)=O)[C@H]3O[C@@H](n4ccc(=O)[nH]c4=O)[C@H](O)[C@@H]3OC)O2)cc1 |  |  |  | 100 (≈ 173 µM) | 5.92
7 | COc1ccccc1CNC(=O)C1=C[C@H](O)[C@H](O)[C@@H](O[C@@H](C(N)=O)[C@H]2O[C@@H](n3ccc(=O)[nH]c3=O)[C@H](O)[C@@H]2OC)O1 |  |  |  | 50 (≈ 86.4 µM) | 6.32
8 | COc1ccccc1NC(=O)C1=C[C@H](O)[C@H](O)[C@@H](O[C@@H](C(N)=O)[C@H]2O[C@@H](n3ccc(=O)[nH]c3=O)[C@H](O)[C@@H]2OC)O1 |  |  |  | 25 (≈ 44.3 µM) | 7.26
9 | CO[C@H]1[C@@H](O)[C@H](n2ccc(=O)[nH]c2=O)O[C@@H]1[C@@H](O[C@H]1OC(C(=O)Nc2nncs2)=C[C@H](O)[C@@H]1O)C(N)=O |  |  |  | > 100 | 6.71
10 | NNC(=O)c1ccncc1 [ISONIAZID] | 2 (≈ 14.6 µM) | 1 (≈ 7.29 µM) | 8 (≈ 58.3 µM) |  | 
11 | CO[C@H]1[C@@H](O)[C@H](n2ccc(=O)[nH]c2=O)O[C@@H]1[C@@H](O[C@H]1OC(C(=O)Nc2ccc(F)c(F)c2)=C[C@H](O)[C@@H]1O)C(N)=O | 8 (≈ 14 µM) | 2 (≈ 3.51 µM) | 0.5 (≈ 0.876 µM) | 6.25 (≈ 11 µM) | 
12 | CCOc1ccccc1NC(=O)C1=C[C@H](O)[C@H](O)[C@@H](O[C@@H](C(N)=O)[C@H]2O[C@@H](n3ccc(=O)[nH]c3=O)[C@H](O)[C@@H]2OC)O1 |  |  |  | 50 (≈ 86.4 µM) | 7.19
13 | CO[C@H]1[C@@H](O)[C@H](n2ccc(=O)[nH]c2=O)O[C@@H]1[C@@H](O[C@H]1OC(C(=O)NCc2ccco2)=C[C@H](O)[C@@H]1O)C(N)=O |  |  |  | 100 (≈ 186 µM) | 6.28
14 | CO[C@H]1[C@@H](O)[C@H](n2ccc(=O)[nH]c2=O)O[C@@H]1[C@@H](O[C@H]1OC(C(=O)NCc2ccccn2)=C[C@H](O)[C@@H]1O)C(N)=O |  |  |  | 100 (≈ 182 µM) | 6.18
15 | CO[C@H]1[C@@H](O)[C@H](n2ccc(=O)[nH]c2=O)O[C@@H]1[C@@H](O[C@H]1OC(C(=O)NCc2ccc(F)cc2)=C[C@H](O)[C@@H]1O)C(N)=O |  |  |  | 50 (≈ 88.3 µM) | 6.45
16 | CO[C@H]1[C@@H](O)[C@H](n2ccc(=O)[nH]c2=O)O[C@@H]1[C@@H](O[C@H]1OC(C(=O)Nc2nc(C(C)(C)C)cs2)=C[C@H](O)[C@@H]1O)C(N)=O |  |  |  | 100 (≈ 167 µM) | 7.60
17 | CCCc1ccc(NC(=O)C2=C[C@H](O)[C@H](O)[C@@H](O[C@@H](C(N)=O)[C@H]3O[C@@H](n4ccc(=O)[nH]c4=O)[C@H](O)[C@@H]3OC)O2)cc1 |  |  |  | 12.5 (≈ 21.7 µM) | 7.27
18 | COc1ccc(CCNC(=O)C2=C[C@H](O)[C@H](O)[C@@H](O[C@@H](C(N)=O)[C@H]3O[C@@H](n4ccc(=O)[nH]c4=O)[C@H](O)[C@@H]3OC)O2)cc1 |  |  |  | 25 (≈ 42.2 µM) | 7.17
19 | CNC(=O)C1=C[C@H](O)[C@H](O)[C@@H](O[C@@H](C(N)=O)[C@H]2O[C@@H](n3ccc(=O)[nH]c3=O)[C@H](O)[C@@H]2OC)O1 |  |  |  | > 100 | 6.42

Row | Compound | MIC (Mycobacterium kansasii) [µg/mL] | MIC (Mycobacterium avium) [µg/mL] | MIC [1] [µg/mL] | MIC [2] [µg/mL] | pIC50 [3]
20 | CCc1ccccc1NC(=O)C1=C[C@H](O)[C@H](O)[C@@H](O[C@@H](C(N)=O)[C@H]2O[C@@H](n3ccc(=O)[nH]c3=O)[C@H](O)[C@@H]2OC)O1 |  |  |  | 50 (≈ 88.9 µM) | 7.02
21 | CO[C@H]1[C@@H](O)[C@H](n2ccc(=O)[nH]c2=O)O[C@@H]1[C@@H](O[C@H]1OC(C(=O)Nc2ccccc2)=C[C@H](O)[C@@H]1O)C(N)=O | 8 (≈ 15 µM) | 16 (≈ 29.9 µM) | 4 (≈ 7.48 µM) | 6.25 (≈ 11.7 µM) | 
22 | CO[C@H]1[C@@H](O)[C@H](n2ccc(=O)[nH]c2=O)O[C@@H]1[C@@H](O[C@H]1OC(C(=O)NCCc2ccccn2)=C[C@H](O)[C@@H]1O)C(N)=O |  |  |  | 25 (≈ 44.4 µM) | 6.71
23 | CO[C@H]1[C@@H](O)[C@H](n2ccc(=O)[nH]c2=O)O[C@@H]1[C@@H](O[C@H]1OC(C(=O)Nc2ccc(F)cc2F)=C[C@H](O)[C@@H]1O)C(N)=O |  |  |  | 12.5 (≈ 21.9 µM) | 7.58
24 | CCc1ccc(NC(=O)C2=C[C@H](O)[C@H](O)[C@@H](O[C@@H](C(N)=O)[C@H]3O[C@@H](n4ccc(=O)[nH]c4=O)[C@H](O)[C@@H]3OC)O2)cc1 |  |  |  | 12.5 (≈ 22.2 µM) | 7.45
25 | CCCCCCCCCCNC(=O)C1=C[C@H](O)[C@H](O)[C@@H](O[C@@H](C(N)=O)[C@H]2O[C@@H](n3ccc(=O)[nH]c3=O)[C@H](O)[C@@H]2OC)O1 |  |  |  | 25 (≈ 41.8 µM) | 6.36
26 | CO[C@H]1[C@@H](O)[C@H](n2ccc(=O)[nH]c2=O)O[C@@H]1[C@@H](O[C@H]1OC(C(=O)NCCc2ccc(Cl)cc2)=C[C@H](O)[C@@H]1O)C(N)=O |  |  |  | 25 (≈ 41.9 µM) | 7.47
27 | CO[C@H]1[C@@H](O)[C@H](n2ccc(=O)[nH]c2=O)O[C@@H]1[C@@H](O[C@H]1OC(C(=O)NCCc2ccc(C)cc2)=C[C@H](O)[C@@H]1O)C(N)=O |  |  |  | 50 (≈ 86.7 µM) | 7.23
28 | COc1cc(CNC(=O)C2=C[C@H](O)[C@H](O)[C@@H](O[C@@H](C(N)=O)[C@H]3O[C@@H](n4ccc(=O)[nH]c4=O)[C@H](O)[C@@H]3OC)O2)cc(OC)c1OC |  |  |  | > 100 | 6.18
29 | CCCCCCCCCCCCNC(=O)C1=C[C@H](O)[C@H](O)[C@@H](O[C@@H](C(N)=O)[C@H]2O[C@@H](n3ccc(=O)[nH]c3=O)[C@H](O)[C@@H]2OC)O1 |  |  |  | 25 (≈ 39.9 µM) | 6.21
30 | CO[C@H]1[C@@H](O)[C@H](n2ccc(=O)[nH]c2=O)O[C@@H]1[C@@H](O[C@H]1OC(C(=O)NCc2cccs2)=C[C@H](O)[C@@H]1O)C(N)=O |  |  |  | 50 (≈ 90.2 µM) | 6.86
31 | COc1ccccc1CCNC(=O)C1=C[C@H](O)[C@H](O)[C@@H](O[C@@H](C(N)=O)[C@H]2O[C@@H](n3ccc(=O)[nH]c3=O)[C@H](O)[C@@H]2OC)O1 |  |  |  | 50 (≈ 84.4 µM) | 7.27
32 | CO[C@H]1[C@@H](O)[C@H](n2ccc(=O)[nH]c2=O)O[C@@H]1[C@@H](O[C@H]1OC(C(=O)N2CCCC2)=C[C@H](O)[C@@H]1O)C(N)=O |  |  |  | > 100 | 6.09
33 | CCCCCCNC(=O)C1=C[C@H](O)[C@H](O)[C@@H](O[C@@H](C(N)=O)[C@H]2O[C@@H](n3ccc(=O)[nH]c3=O)[C@H](O)[C@@H]2OC)O1 |  |  |  | 12.5 (≈ 23 µM) | 7.26
34 | CO[C@H]1[C@@H](O)[C@H](n2ccc(=O)[nH]c2=O)O[C@@H]1[C@@H](O[C@H]1OC(C(=O)NC2CCCCCC2)=C[C@H](O)[C@@H]1O)C(N)=O |  |  |  | 25 (≈ 45.1 µM) | 7.31
35 | CO[C@H]1[C@@H](O)[C@H](n2ccc(=O)[nH]c2=O)O[C@@H]1[C@@H](O[C@H]1OC(C(=O)Nc2ccc(C(C)C)cc2)=C[C@H](O)[C@@H]1O)C(N)=O |  |  |  | 25 (≈ 43.4 µM) | 6.68
36 | CO[C@H]1[C@@H](O)[C@H](n2ccc(=O)[nH]c2=O)O[C@@H]1[C@@H](O[C@H]1OC(C(=O)NCCc2ccc(O)cc2)=C[C@H](O)[C@@H]1O)C(N)=O |  |  |  | 50 (≈ 86.4 µM) | 6.98
37 | CO[C@H]1[C@@H](O)[C@H](n2ccc(=O)[nH]c2=O)O[C@@H]1[C@@H](O[C@H]1OC(C(=O)Nc2ccccc2OCc2ccccc2)=C[C@H](O)[C@@H]1O)C(N)=O |  |  |  | 25 (≈ 39 µM) | 7.44
